Test results published in US4127687A, “Prevention of fouling of marine structures such as boat hulls” (Rohm and Haas Company, priority 1976, dated 1978).
Converted amounts (≈) assume the structure as drawn.

Experiments:
barnacle = test: Membrane Diffusion Raft Trials, barnacle control; assay type: in vivo, barnacles; conditions: membrane test, average 15 to 16 weeks of immersion
Text: (§1) 1). FIELD TESTS: - Membrane Diffusion Raft Trials
(§2) A specially constructed raft provides three types
(§3) a). Waterline Well illuminated, aerated
(§4) b). Flats Poorly illuminated deeper
(§5) A known quantity of the test compound is placed into a cylindrical plastic container whose open end is then covered with a membrane of known porosity; the complete unit is attached to the appropriate raft panel so that the poison can freely diffuse into the free water layer around it. Regular inspections, recording time and quantity of settlement, allow a life history of each membrane trial to be constructed. Each raft panel contains 35 compounds to be evaluated together with 4 standard poisons and 1 non-toxic membrane for control.
(§6) The behavior on the raft can thus be compared with that of the standard poisons and the non-toxic control. At normal loading a membrane over the standard poisons would be free from macro-fouling after six months immersion. Compounds showing selective effects against restricted groups of fouling organisms also show up by membrane testing.
(§7) After the completion of membrane tests the contents of all containers are checked visually for poison loss. An empty container indicates an unacceptably high solubility for long term effectiveness; where the poison loss is low the compound is tested in one of two ways depending on its performance against fouling.
(§8) In the membrane tests, the results of approximately 140 compounds evaluated appear in Table 1. The symbols "0" means no detactable effect, the symbol "+" indicates the compound is active against the given fouling organism, and the symbol "++" means that the compound appears to be effective over at least about a four month period for essentially preventing fouling activity by the given organism. In the Table, "weed" designates a grass-like algal growth common in sea water.
(§9) Membrane Test results are of an average 15 to 16 weeks of immersion,
(§10) ^a 0 = none, + = some, + + = effective.
^f The 1975 Spring settlement of barnacles was very meager and the […]

weed = test: Membrane Diffusion Raft Trials, weed control; assay type: in vivo, grass-like algal growth common in sea water; conditions: membrane test, average 15 to 16 weeks of immersion
Text: as §1, §2, §3, §4, §5, §6, §7, §8, §9, §10

[1] = Water solubility by UV spectrophotometric method; assay type: physicochemical; conditions: water, saturated solution; Table 1; read-out: Solubility by UV method
Protocol: The water solubilities of several isothiazolones were determined by UV spectrophotometric measurements of saturated aqueous solution of each compound in comparison with measurement of solutions of carefully prepared known concentration as outlined in the following example.
DETERMINATION OF SOLUBILITY OF 5-CHLORO-2-(4-FLUOROPHENYL)-4-METHYL-3-ISOTHIAZOLONE OF EXAMPLE 115
A sample of 5-chloro-2-(4-fluorophenyl)-4-methyl-3-isothiazolone (0.0406 g., 1.67 × 10^-4 mole) was dissolved in 50 ml. of methanol. A 5 ml. aliquot of the solution was diluted to 1000 ml. with deionized water, providing a solution of 1.67 × 10^-5 moles/liter concentration. An ultraviolet spectrum of this solution was run using a 10 cm. cell. The absorbance (As) at the wave length of maximum absorption (279 nm.) was 1.208. The molar absorptivity, AM, was calculated from the relationship
where b and c are path length or cell thickness and concentration respectively. Thus, AM was [formula]
Another sample of the compound (0.3-0.5 g.) was stirred vigorously in 40 ml. of deionized water for approximately 72 hrs. to give a saturated solution. The mixture was filtered through very fine filter paper (Whatman No. 50) to remove all suspended solid. Small portions of the filtrate were diluted with water by various factors until an approximately mid-scale absorbance was obtained upon running an ultraviolet spectrum. Such an absorbance was obtained at a dilution of 10. The absorbance was 0.975 in a 10 cm. cell. Using the value for AM obtained earlier, in the equation

[2] = Amount of toxicant remaining in the test container after membrane diffusion raft tests; assay type: physicochemical; design: key: 0: empty or trace; +: some; + +: ample; conditions: after completion of membrane diffusion raft tests
Text: as §5, §7
^b Amount of toxicants remaining in the test container after the
completion of the membrane diffusion raft tests: 0 = empty or trace, + =

Enteromorpha spores = test: Laboratory toxicity test (Lab Bioassay) with Enteromorpha spores; assay type: in vivo; conditions: using Enteromorpha spores
Text: Standard laboratory toxicity tests use Enteromorpha spores (zoospores or gametes) but Ectocarpus spores and barnacle nauplii may also be used. During the spore tests additional information on the control of bacterial and diatom slimes becomes available since these organisms are unavoidably introduced with the spore inoculum.
More detailed laboratory toxicity tests on promising compounds determine LD50 values as percentage saturated solution.
^c Using Enteromorpha spores.

CCCCC(CC)Cn1sc(Cl)cc1=O (stereo not shown) [Example 17]
Barnacle Control (barnacle): + + | Weed Control (weed): + + | solubility [1]: 135 µg/mL (≈ 545 µM) | Contents at the end of test (amount of toxicants remaining in the test container) [2]: 0 | Lab Bioassay LD50 (Enteromorpha spores): .013 percentage saturated solution

CCCCCCCCCCCCn1sc(Cl)cc1=O [Example 23]
Barnacle Control (barnacle): + | Weed Control (weed): + + | solubility [1]: 0.7 to 1.5 µg/mL (≈ 2.3 to 4.94 µM) | Contents at the end of test (amount of toxicants remaining in the test container) [2]: + | Lab Bioassay LD50 (Enteromorpha spores): 0.02 percentage saturated solution

O=c1cc(Cl)sn1Cc1ccc(Cl)cc1 [Example 32]
Barnacle Control (barnacle): + | Weed Control (weed): + + | solubility [1]: 70 µg/mL (≈ 269 µM) | Contents at the end of test (amount of toxicants remaining in the test container) [2]: + + | Lab Bioassay LD50 (Enteromorpha spores): 0.018 percentage saturated solution

O=c1cc(Cl)sn1-c1ccc(Cl)cc1 [Example 34]
Barnacle Control (barnacle): + + | Weed Control (weed): + + | solubility [1]: 41 µg/mL (≈ 167 µM) | Contents at the end of test (amount of toxicants remaining in the test container) [2]: + + | Lab Bioassay LD50 (Enteromorpha spores): 0.025 percentage saturated solution

COc1ccc(-n2sc(Cl)cc2=O)cc1 [Example 38]
Barnacle Control (barnacle): + | Weed Control (weed): + + | solubility [1]: 300 µg/mL (≈ 1240 µM) | Contents at the end of test (amount of toxicants remaining in the test container) [2]: + + | Lab Bioassay LD50 (Enteromorpha spores): 0.025 percentage saturated solution

O=c1cc(Cl)sn1-c1ccc(Oc2ccccc2)cc1 [Example 39]
Barnacle Control (barnacle): + + | Weed Control (weed): 0 | Contents at the end of test (amount of toxicants remaining in the test container) [2]: + + | Lab Bioassay LD50 (Enteromorpha spores): 0.6 percentage saturated solution

COc1cc(Cl)ccc1-n1sc(Cl)cc1=O [Example 41]
Barnacle Control (barnacle): + | Weed Control (weed): + + | solubility [1]: 55 µg/mL (≈ 199 µM) | Contents at the end of test (amount of toxicants remaining in the test container) [2]: + + | Lab Bioassay LD50 (Enteromorpha spores): 0.03 percentage saturated solution

CCCCCCn1scc(Br)c1=O [Example 47]
Barnacle Control (barnacle): + + | Weed Control (weed): 0 | Contents at the end of test (amount of toxicants remaining in the test container) [2]: + | Lab Bioassay LD50 (Enteromorpha spores): > 1 percentage saturated solution

CCCCCCCCCCn1scc(Br)c1=O [Example 49]
Barnacle Control (barnacle): 0 | Weed Control (weed): + + | Contents at the end of test (amount of toxicants remaining in the test container) [2]: + | Lab Bioassay LD50 (Enteromorpha spores): 0.01 percentage saturated solution

Cc1c(Cl)sn(-c2ccc(I)cc2)c1=O [Example 117]
Barnacle Control (barnacle): + + | Weed Control (weed): + | Contents at the end of test (amount of toxicants remaining in the test container) [2]: + + | Lab Bioassay LD50 (Enteromorpha spores): 0.2 percentage saturated solution

Cc1ccccc1-n1sc(Cl)c(C)c1=O [Example 118]
Barnacle Control (barnacle): 0 | Weed Control (weed): + + | Contents at the end of test (amount of toxicants remaining in the test container) [2]: + | Lab Bioassay LD50 (Enteromorpha spores): 0.15 percentage saturated solution

Cc1cccc(-n2sc(Cl)c(C)c2=O)c1 [Example 119]
Barnacle Control (barnacle): 0 | Weed Control (weed): + + | Contents at the end of test (amount of toxicants remaining in the test container) [2]: + + | Lab Bioassay LD50 (Enteromorpha spores): 0.1 percentage saturated solution

Cc1ccc(-n2sc(Cl)c(C)c2=O)cc1C [Example 122]
Barnacle Control (barnacle): + + | Weed Control (weed): + + | Contents at the end of test (amount of toxicants remaining in the test container) [2]: + + | Lab Bioassay LD50 (Enteromorpha spores): 0.01 percentage saturated solution

Cc1c(Cl)sn(-c2ccc(O)cc2)c1=O [Example 125]
Barnacle Control (barnacle): 0 | Weed Control (weed): + + | Contents at the end of test (amount of toxicants remaining in the test container) [2]: + + | Lab Bioassay LD50 (Enteromorpha spores): > 1 percentage saturated solution

CCOC(=O)c1ccc(-n2sc(Cl)c(C)c2=O)cc1 [Example 126]
Barnacle Control (barnacle): + + | Weed Control (weed): + | Contents at the end of test (amount of toxicants remaining in the test container) [2]: + + | Lab Bioassay LD50 (Enteromorpha spores): 0.13 percentage saturated solution

Cc1c(Cl)sn(-c2ccccc2C(F)(F)F)c1=O [Example 128]
Barnacle Control (barnacle): 0 | Weed Control (weed): + + | Contents at the end of test (amount of toxicants remaining in the test container) [2]: + | Lab Bioassay LD50 (Enteromorpha spores): 0.6 percentage saturated solution
